Results taken from US9693556B2, “Herbicidal pyridazinone derivatives” (SYNGENTA LIMITED, priority 2011, dated 2017).

Tests used:
Type in all cases: in vivo
[1] = system: Ipomoea hederacea (IPOHE); experiment: Pre-emergence herbicidal glasshouse test on Ipomoea hederacea; details: pre-emergence; 1000 g/h; evaluated after 13 days
Summary of the method: (§1)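 Application rate 1000 g/h, formulated in acetone/water (50:50) with 0.5% Tween 20 and sprayed onto pots sown 1 day (pre-emergence) or 8 days (post-emergence) earlier. Evaluation at 13 days rated damage from 1 (0-19%) to 5 (80-100%).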

[2] = system: Alopecurus myosuroides (ALOMY); experiment: Pre-emergence herbicidal glasshouse test on Alopecurus myosuroides; details: pre-emergence; 1000 g/h; evaluated after 13 days
Summary of the method: as §1

[3] = system: Echinochloa crus-galli (ECHCG); experiment: Post-emergence herbicidal glasshouse test on Echinochloa crus-galli; details: post-emergence; 1000 g/h; evaluated after 13 days
Summary of the method: as §1

Solanum nigrum (SOLNI) [4] = experiment: Post-emergence herbicidal glasshouse test on Solanum nigrum; details: post-emergence; 1000 g/h; evaluated after 13 days
Summary of the method: as §1

Setaria faberi (SETFA) [5] = experiment: Post-emergence herbicidal glasshouse test on Setaria faberi; details: post-emergence; 1000 g/h; evaluated after 13 days
Summary of the method: as §1

[6] = system: Alopecurus myosuroides (ALOMY); experiment: Post-emergence herbicidal glasshouse test on Alopecurus myosuroides; details: post-emergence; 1000 g/h; evaluated after 13 days
Summary of the method: as §1

Setaria faberi (SETFA) [7] = experiment: Pre-emergence herbicidal glasshouse test on Setaria faberi; details: pre-emergence; 1000 g/h; evaluated after 13 days
Summary of the method: as §1

[8] = system: Amaranthus retoflexus (AMARE); experiment: Post-emergence herbicidal glasshouse test on Amaranthus retoflexus; details: post-emergence; 1000 g/h; evaluated after 13 days
Summary of the method: as §1

Solanum nigrum (SOLNI) [9] = experiment: Pre-emergence herbicidal glasshouse test on Solanum nigrum; details: pre-emergence; 1000 g/h; evaluated after 13 days
Summary of the method: as §1

[10] = system: Echinochloa crus-galli (ECHCG); experiment: Pre-emergence herbicidal glasshouse test on Echinochloa crus-galli; details: pre-emergence; 1000 g/h; evaluated after 13 days
Summary of the method: as §1

[11] = system: Ipomoea hederacea (IPOHE); experiment: Post-emergence herbicidal glasshouse test on Ipomoea hederacea; details: post-emergence; 1000 g/h; evaluated after 13 days
Summary of the method: as §1

[12] = system: Amaranthus retoflexus (AMARE); experiment: Pre-emergence herbicidal glasshouse test on Amaranthus retoflexus; details: pre-emergence; 1000 g/h; evaluated after 13 days
Summary of the method: as §1

C=Cn1ncc(-c2ccccc2S(C)(=O)=O)c(O)c1=O [Compound 2.054]
PRE Application IPOHE herbicidal damage (five point scale) [1]: 4 (4=60-79% damage) | PRE Application ALOMY herbicidal damage (five point scale) [2]: 5 (5=80-100% damage) | POST Application ECHCG herbicidal damage (five point scale) [3]: 5 (5=80-100% damage) | POST Application SOLNI herbicidal damage (five point scale) (Solanum nigrum (SOLNI) [4]): 5 (5=80-100% damage) | POST Application SETFA herbicidal damage (five point scale) (Setaria faberi (SETFA) [5]): 5 (5=80-100% damage) | POST Application ALOMY herbicidal damage (five point scale) [6]: 5 (5=80-100% damage) | PRE Application SETFA herbicidal damage (five point scale) (Setaria faberi (SETFA) [7]): 5 (5=80-100% damage) | POST Application AMARE herbicidal damage (five point scale) [8]: 5 (5=80-100% damage) | PRE Application SOLNI herbicidal damage (five point scale) (Solanum nigrum (SOLNI) [9]): 5 (5=80-100% damage) | PRE Application ECHCG herbicidal damage (five point scale) [10]: 5 (5=80-100% damage) | POST Application IPOHE herbicidal damage (five point scale) [11]: 5 (5=80-100% damage) | PRE Application AMARE herbicidal damage (five point scale) [12]: 5 (5=80-100% damage)

CC(=O)Oc1c(-c2ccc(C(F)(F)F)cc2S(C)(=O)=O)cnn(C)c1=O [Compound 3.001, [2-methyl-5-[2-methylsulfonyl-4-(trifluoromethyl)phenyl]-3-oxo-pyridazin-4-yl]acetate]
PRE Application IPOHE herbicidal damage (five point scale) [1]: 5 (5=80-100% damage) | PRE Application ALOMY herbicidal damage (five point scale) [2]: 5 (5=80-100% damage) | POST Application ECHCG herbicidal damage (five point scale) [3]: 5 (5=80-100% damage) | POST Application SOLNI herbicidal damage (five point scale) (Solanum nigrum (SOLNI) [4]): 5 (5=80-100% damage) | POST Application SETFA herbicidal damage (five point scale) (Setaria faberi (SETFA) [5]): 5 (5=80-100% damage) | POST Application ALOMY herbicidal damage (five point scale) [6]: 5 (5=80-100% damage) | PRE Application SETFA herbicidal damage (five point scale) (Setaria faberi (SETFA) [7]): 5 (5=80-100% damage) | POST Application AMARE herbicidal damage (five point scale) [8]: 5 (5=80-100% damage) | PRE Application SOLNI herbicidal damage (five point scale) (Solanum nigrum (SOLNI) [9]): 5 (5=80-100% damage) | PRE Application ECHCG herbicidal damage (five point scale) [10]: 5 (5=80-100% damage) | POST Application IPOHE herbicidal damage (five point scale) [11]: 5 (5=80-100% damage) | PRE Application AMARE herbicidal damage (five point scale) [12]: 5 (5=80-100% damage)

Cc1cc(Cl)ccc1-c1c(C(F)(F)F)ccn(-c2cnn(C)c(=O)c2O)c1=O [Compound 7.038]
PRE Application IPOHE herbicidal damage (five point scale) [1]: 4 (4=60-79% damage) | PRE Application ALOMY herbicidal damage (five point scale) [2]: 5 (5=80-100% damage) | POST Application ECHCG herbicidal damage (five point scale) [3]: 5 (5=80-100% damage) | POST Application SOLNI herbicidal damage (five point scale) (Solanum nigrum (SOLNI) [4]): 5 (5=80-100% damage) | POST Application SETFA herbicidal damage (five point scale) (Setaria faberi (SETFA) [5]): 3 (3=40-59% damage) | POST Application ALOMY herbicidal damage (five point scale) [6]: 5 (5=80-100% damage) | PRE Application SETFA herbicidal damage (five point scale) (Setaria faberi (SETFA) [7]): 3 (3=40-59% damage) | POST Application AMARE herbicidal damage (five point scale) [8]: 5 (5=80-100% damage) | PRE Application SOLNI herbicidal damage (five point scale) (Solanum nigrum (SOLNI) [9]): 5 (5=80-100% damage) | PRE Application ECHCG herbicidal damage (five point scale) [10]: 5 (5=80-100% damage) | POST Application IPOHE herbicidal damage (five point scale) [11]: 5 (5=80-100% damage) | PRE Application AMARE herbicidal damage (five point scale) [12]: 5 (5=80-100% damage)

Cc1ccc(Cl)c(-c2c(C(F)(F)F)ccn(-c3cnn(C)c(=O)c3O)c2=O)c1 [Compound 7.032]
PRE Application IPOHE herbicidal damage (five point scale) [1]: 5 (5=80-100% damage) | PRE Application ALOMY herbicidal damage (five point scale) [2]: 4 (4=60-79% damage) | POST Application ECHCG herbicidal damage (five point scale) [3]: 5 (5=80-100% damage) | POST Application SOLNI herbicidal damage (five point scale) (Solanum nigrum (SOLNI) [4]): 5 (5=80-100% damage) | POST Application SETFA herbicidal damage (five point scale) (Setaria faberi (SETFA) [5]): 5 (5=80-100% damage) | POST Application ALOMY herbicidal damage (five point scale) [6]: 3 (3=40-59% damage) | PRE Application SETFA herbicidal damage (five point scale) (Setaria faberi (SETFA) [7]): 5 (5=80-100% damage) | POST Application AMARE herbicidal damage (five point scale) [8]: 5 (5=80-100% damage) | PRE Application SOLNI herbicidal damage (five point scale) (Solanum nigrum (SOLNI) [9]): 5 (5=80-100% damage) | PRE Application ECHCG herbicidal damage (five point scale) [10]: 5 (5=80-100% damage) | POST Application IPOHE herbicidal damage (five point scale) [11]: 5 (5=80-100% damage) | PRE Application AMARE herbicidal damage (five point scale) [12]: 5 (5=80-100% damage)

Cn1ncc(-c2ccc(C(F)(F)F)nc2OCc2cccc(Cl)c2)c(O)c1=O [Compound 4.009]
PRE Application IPOHE herbicidal damage (five point scale) [1]: 1 (1=0-19% damage) | PRE Application ALOMY herbicidal damage (five point scale) [2]: 1 (1=0-19% damage) | POST Application ECHCG herbicidal damage (five point scale) [3]: 1 (1=0-19% damage) | POST Application SOLNI herbicidal damage (five point scale) (Solanum nigrum (SOLNI) [4]): 5 (5=80-100% damage) | POST Application SETFA herbicidal damage (five point scale) (Setaria faberi (SETFA) [5]): 1 (1=0-19% damage) | POST Application ALOMY herbicidal damage (five point scale) [6]: 1 (1=0-19% damage) | PRE Application SETFA herbicidal damage (five point scale) (Setaria faberi (SETFA) [7]): 1 (1=0-19% damage) | POST Application AMARE herbicidal damage (five point scale) [8]: 4 (4=60-79% damage) | PRE Application SOLNI herbicidal damage (five point scale) (Solanum nigrum (SOLNI) [9]): 1 (1=0-19% damage) | PRE Application ECHCG herbicidal damage (five point scale) [10]: 1 (1=0-19% damage) | POST Application IPOHE herbicidal damage (five point scale) [11]: 1 (1=0-19% damage) | PRE Application AMARE herbicidal damage (five point scale) [12]: 3 (3=40-59% damage)
